From patent US9701681B2, “Fused ring heteroaryl compounds and their use as Trk inhibitors” (CMG Pharmaceutical Co., Ltd., priority 2014, dated 2017) come the findings set out here.

For one test, the system named is TF-1 cells. As to the kind of experiment: Cell proliferation assay (TF-1). As to conditions: 10 ng/ml human β-NGF, 72 hours exposure, read-out: IC50 (nM) Cell-based assay (TF-1). As for the experimental part: Doxorubicin was purchased from Sigma Aldrich (D1515). All compounds were diluted in DMSO (Sigma Aldrich, D2650). AlamarBlue® cell viability reagent was purchased from Thermo Scientific (88952). CellTiter 96® AQueous One Solution Cell proliferation assay was purchased from Promega. KM12-luc cells were obtained from JCRB (National Institute of Health Sciences, Tokyo, Japan). They were maintained in DMEM medium (GIB-11965-118) supplemented with 10% fetal bovine serum (Gibco, 16000-044) and MEM Non-Essential Amino Acids Solution (Thermo Scientific, 11140-050). TF-1 cells were obtained from ATCC. They were maintained in RPMI medium (GIB-A10491) supplemented with 10% fetal bovine serum (Gibco, 16000-044), GM-CSF (Thermo Scientific, 11140-050), and β-NGF (R&D systems). Trypsin/EDTA was purchased from Gibco (GIB-25300-054, 0.05%). 96-well plates were purchased from Corning Inc.
The proliferation assay was performed for Chemical Compounds 1-61 s in media supplemented with 10% FBS, using AlamarBlue® cell viability reagent or CellTiter 96® AQueous One Solution Cell proliferation assay kit. Cells were cultured in humidified 37° C. incubator with 5% CO2. To evaluate the antiproliferation activity of compounds, TF-1 cells were adjusted to GM-CSF free media (RPMI, 10% FBS, and 1% penicillin-streptomycin) for 16 hr and were seeded in 96-well plates at 30,000 cells/well with medium (RPMI, 10% FBS, 1% penicillin-streptomycin and 10 ng/ml human β-NGF). KM12-luc were seeded at 10,000 cells per well into 96-well plates. After overnight incubation, serial dilutions of compounds were added to triplicate wells, and cells were exposed for 72 hours. The final concentration of DMSO was adjusted to 0.5% in media. Quantitation of cell growth was assessed using two kinds of reagent. 20 ul of AlamarBlue® reagent in an amount equal to 10% of the culture volume was added to each well and were incubated in humidified 37° C. incubator with 5% CO2 for 2 hr. Otherwise, 20 ul of CellTiter 96® reagent was added to each well and were incubated in the same conditions as previously described. Data were plotted, and GI50 values were calculated using GraphPad software. Table 1 below includes the results of the assays.

The next test deals with T1, TRK A, B & C kinase.
T1 construct: fused on or other part: Carna's Trk kinases are usually GST-tagged cytoplasmic domains
The test can be described thus: TRK A, B & C kinase assay (ADP-Glo / HTRF KinEASE-TK). It is filed as biochemical. As to conditions: ADP-Glo or HTRF KinEASE-TK kit, isoform not specified, read-out: IC50 (nM) Enzymatic assay. In a few lines: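 ADP-Glo: TrkA/B/C (0.4/0.5/3 ng/ul) with poly(Glu,Tyr), 1 h at 30° C, luminescence readout. HTRF: TRKA/B/C (0.3/0.1/0.03 ng/ul) at ATP 14.7/4.77/25.6 uM with TK-substrate, compound 0–100 nM for 40 min at RT, then detection by 665/620 ratio. Both give IC50 by curve fit.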

The subject of the next test is KM12-luc cells. The test can be described thus: Cell proliferation assay (KM12). The following applies: 72 hours exposure, read-out: IC50 (nM) Cell-based assay (KM12). In a few lines:
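KM12-luc cells were seeded at 10,000/well. TF-1 cells were first held 16 hr without GM-CSF, then seeded at 30,000/well with 10 ng/ml human β-NGF. Cells were exposed in triplicate to serial dilutions for 72 h in 10% FBS with 0.5% DMSO at 37 °C, read by AlamarBlue or CellTiter 96 for 2 hr, and GI50 was fitted.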

In the case of `Cc1noc(C)c1-c1cnn2ccc(N3CCCC3c3cc(F)ccc3F)nc12` (stereo not drawn) [Chemical Compound 31, 4-(5-(2-(2,5-difluorophenyl)pyrrolidin-1-yl)pyrazolo[1,5-a]pyrimidin-3-yl)-3,5-dimethylisoxazole], the IC50 (in general, the concentration that inhibits the measured activity by half) is less than 1000 nM with TF-1 cells; less than 100 nM on TRK A, B & C kinase; less than 1000 nM in the test on KM12-luc cells.

`Cc1nnc(-c2cnn3ccc(N4CCCC4c4cc(F)ccc4F)nc23)[nH]1` (stereo not drawn) [Chemical Compound 32, 5-(2-(2,5-difluorophenyl)pyrrolidin-1-yl)-3-(5-methyl-1H-1,2,4-triazol-3-yl)pyrazolo[1,5-a]pyrimidine]: the IC50 was less than 100 nM in the test on TF-1 cells; less than 10 nM on TRK A, B & C kinase; less than 100 nM with KM12-luc cells.

Regarding `CCNC(=O)/C=C/c1cnn2ccc(N3CCCC3c3cncc(F)c3)nc12` (stereo not drawn) [Chemical Compound 38, (E)-N-ethyl-3-(5-(2-(5-fluoropyridin-3-yl)pyrrolidin-1-yl)pyrazolo[1,5-a]pyrimidin-3-yl)acrylamide], the IC50 in the test with TF-1 cells is less than 1000 nM; on TRK A, B & C kinase, less than 10 nM; in the test with KM12-luc cells it was less than 1000 nM.

As for `O=C(/C=C/c1cnn2ccc(N3CCCC3c3cncc(F)c3)nc12)NC1CC1` (stereo not drawn) [Chemical Compound 39, (E)-N-cyclopropyl-3-(5-(2-(5-fluoropyridin-3-yl)pyrrolidin-1-yl)pyrazolo[1,5-a]pyrimidin-3-yl)acrylamide], the concentration for half-maximal inhibition (IC50) in the test on TF-1 cells is less than 1000 nM; on TRK A, B & C kinase, less than 10 nM; with KM12-luc cells, less than 1000 nM.

Take `CN(C)C(=O)/C=C/c1cnn2ccc(N3CCCC3c3cncc(F)c3)nc12` (stereo not drawn) [Chemical Compound 40, (E)-3-(5-(2-(5-fluoropyridin-3-yl)pyrrolidin-1-yl)pyrazolo[1,5-a]pyrimidin-3-yl)-N,N-dimethylacryl-amide]: the half-maximal inhibitory concentration (IC50) in the test on TF-1 cells was less than 100 nM; on TRK A, B & C kinase, less than 10 nM; in the test on KM12-luc cells, less than 1000 nM.

For the compound `CCNC(=O)/C=C/c1cnn2ccc(N3CCCC3c3cc(F)ccc3F)nc12` (stereo not drawn) [Chemical Compound 41, (E)-3-(5-(2-(2,5-difluorophenyl)pyrrolidin-1-yl)pyrazolo[1,5-a]pyrimidin-3-yl)-N-ethylacrylamide], the IC50 in the test on TF-1 cells was less than 100 nM; at TRK A, B & C kinase it was less than 10 nM; in the test with KM12-luc cells it was less than 100 nM.

As for `CC(C)NC(=O)/C=C/c1cnn2ccc(N3CCCC3c3cc(F)ccc3F)nc12` (stereo not drawn) [Chemical Compound 42, (E)-3-(5-(2-(2,5-difluorophenyl)-pyrrolidin-1-yl)pyrazolo[1,5-a]pyrimidin-3-yl)-N-isopropylacrylamide], the IC50 in the test with TF-1 cells was less than 100 nM; at TRK A, B & C kinase it was less than 10 nM; in the test on KM12-luc cells, less than 100 nM.

Consider `O=C(/C=C/c1cnn2ccc(N3CCCC3c3cc(F)ccc3F)nc12)NC1CC1` (stereo not drawn) [Chemical Compound 43, (E)-N-cyclopropyl-3-(5-(2-(2,5-difluorophenyl)pyrrolidin-1-yl)pyrazolo[1,5-a]pyrimidin-3-yl)acrylamide], for which the IC50 in the test with TF-1 cells was less than 100 nM; at TRK A, B & C kinase, less than 10 nM; in the test with KM12-luc cells, less than 100 nM.

Regarding `CC(C)(C)NC(=O)/C=C/c1cnn2ccc(N3CCCC3c3cc(F)ccc3F)nc12` (stereo not drawn) [Chemical Compound 44, (E)-N-tert-butyl-3-(5-(2-(2,5-difluorophenyl)pyrrolidin-1-yl)pyrazolo-[1,5-a]pyrimidin-3-yl)acrylamide], the 50% inhibitory concentration (IC50) in the test on TF-1 cells was less than 100 nM; at TRK A, B & C kinase, less than 10 nM; in the test with KM12-luc cells, less than 100 nM.

For the compound `CN(C)C(=O)/C=C/c1cnn2ccc(N3CCCC3c3cc(F)ccc3F)nc12` (stereo not drawn) [Chemical Compound 45, (E)-3-(5-(2-(2,5-difluorophenyl)pyrrolidin-1-yl)pyrazolo[1,5-a]pyrimidin-3-yl)-N,N-dimethylacrylamide], the IC50 in the test with TF-1 cells is less than 100 nM; on TRK A, B & C kinase, less than 10 nM; in the test on KM12-luc cells, less than 100 nM.

Turning to `COCCNC(=O)/C=C/c1cnn2ccc(N3CCCC3c3cc(F)ccc3F)nc12` (stereo not drawn) [Chemical Compound 46, (E)-3-(5-(2-(2,5-difluorophenyl)pyrrolidin-1-yl)pyrazolo[1,5-a]pyrimidin-3-yl)-N-(2-methoxyethyl)-acrylamide], the IC50 in the test on TF-1 cells is less than 100 nM; at TRK A, B & C kinase, less than 10 nM; in the test on KM12-luc cells, less than 100 nM.

Consider `O=C(/C=C/c1cnn2ccc(N3CCCC3c3cc(F)ccc3F)nc12)N1CC(O)C1` (stereo not drawn) [Chemical Compound 47, (E)-3-(5-(2-(2,5-difluorophenyl)pyrrolidin-1-yl)pyrazolo[1,5-a]pyrimidin-3-yl)-1-(3-hydroxyazetidin-1-yl)prop-2-en-1-one], for which the IC50 was less than 100 nM in the test on TF-1 cells; less than 10 nM at TRK A, B & C kinase; less than 100 nM in the test with KM12-luc cells.

Take `O=C(/C=C/c1cnn2ccc(N3CCC[C@@H]3c3cc(F)ccc3F)nc12)NCCO` [Chemical Compound 48, (R,E)-3-(5-(2-(2,5-difluorophenyl)pyrrolidin-1-yl)pyrazolo[1,5-a]pyrimidin-3-yl)-N-(2-hydroxyethyl)-acrylamide]: the IC50 is less than 100 nM with TF-1 cells; less than 10 nM on TRK A, B & C kinase; less than 100 nM with KM12-luc cells.

On to `O=C(/C=C/c1cnn2ccc(N3CCC[C@@H]3c3cc(F)ccc3F)nc12)N1CCOCC1` [Chemical Compound 49, (R,E)-3-(5-(2-(2,5-difluorophenyl)pyrrolidin-1-yl)pyrazolo[1,5-a]pyrimidin-3-yl)-1-morpholinoprop-2-en-1-one], for which the IC50 in the test with TF-1 cells was less than 10 nM; on TRK A, B & C kinase, less than 10 nM; with KM12-luc cells, less than 100 nM.

Take `O=C(/C=C/c1cnn2ccc(N3CCC[C@@H]3c3cc(F)ccc3F)nc12)N1CCNCC1` [Chemical Compound 50, (R,E)-3-(5-(2-(2,5-difluorophenyl)pyrrolidin-1-yl)pyrazolo[1,5-a]pyrimidin-3-yl)-1-(piperazin-1-yl)prop-2-en-1-one]: the IC50 in the test with TF-1 cells is less than 100 nM; on TRK A, B & C kinase, less than 10 nM; with KM12-luc cells it was less than 10 nM.

Regarding `O=C(C#Cc1cnn2ccc(N3CCCC3c3cc(F)ccc3F)nc12)N1CCOCC1` (stereo not drawn) [Chemical Compound 61, 3-(5-(2-(2,5-difluorophenyl)pyrrolidin-1-yl)pyrazolo[1,5-a]pyrimidin-3-yl)-1-morpholinoprop-2-yn-1-one], the IC50 was less than 100 nM in the test with TF-1 cells; less than 10 nM on TRK A, B & C kinase; less than 100 nM in the test on KM12-luc cells.
